For eight compounds, TGI results are on record in PubChem BioAssay (NCI).

Some test systems named below: CAKI-1 renal; CCRF-CEM leukemia; EKVX NSCLC; HCT-116 colon; HOP-62 NSCLC; LOX IMVI melanoma; MCF7 breast; MDA-MB-231 breast; MDA-N; MOLT-4 leukemia; NCI/ADR-RES ovarian; OVCAR-3 ovarian; SK-OV-3 ovarian; SN12C renal; TK-10 renal; U251 CNS; UACC-257 melanoma; SR leukemia.
Holding throughout (test): inhibition of tumour cell growth, NCI panel, 48 h

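In this assay, cells in 96-well plates receive the compound at five concentrations for 48 hours. Endpoints are linearly interpolated between the surrounding concentrations. TGI: concentration producing complete growth inhibition.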

Take `CC(C)C[C@H](NC(=O)[C@H](Cc1ccccc1)NC(=O)CCc1ccccc1)B(O)O`: the TGI with CAKI-1 renal is 0.0554 µM; in the test on CCRF-CEM leukemia, above 100 µM; with EKVX NSCLC, below 0.0216 µM; in the test with HCT-116 colon it was below 0.01 µM; in the test on HOP-62 NSCLC it was below 0.01 µM; with LOX IMVI melanoma it was below 0.01 µM. Further, the TGI with MCF7 breast is 0.225 µM; in the test with MDA-MB-231 breast, below 0.01 µM; with MDA-N, below 0.01 µM; with MOLT-4 leukemia, 0.665 µM; in the test on NCI/ADR-RES ovarian it was 1.82 µM; with OVCAR-3 ovarian it was below 0.01 µM. In addition, the TGI was 0.0727 µM in the test on SK-OV-3 ovarian; below 0.01 µM in the test with SN12C renal; below 0.01 µM in the test with TK-10 renal; below 0.0112 µM with U251 CNS; below 0.01 µM with UACC-257 melanoma.

For `C1=Nc2ccc(cc2)N=Cc2ccc(cc2)OCc2cccc(n2)COc2ccc1cc2`, the TGI with CAKI-1 renal, with CCRF-CEM leukemia, in the test with EKVX NSCLC, with HCT-116 colon, with HOP-62 NSCLC and in the test with MCF7 breast was above 100 µM each time. Also, the TGI with MDA-MB-231 breast, in the test with MDA-N, in the test with MOLT-4 leukemia, in the test with NCI/ADR-RES ovarian, in the test on OVCAR-3 ovarian and with SK-OV-3 ovarian was above 100 µM in each case. The TGI in the test with SN12C renal, with SR leukemia, with U251 CNS and in the test on UACC-257 melanoma was above 100 µM throughout.

For the compound `CCOC(=O)C1C(c2ccc(OC)cc2)c2c([nH]n(-c3ccccc3)c2=O)CC1(O)OCC` (configuration not stated), the TGI in the test with CAKI-1 renal, in the test on EKVX NSCLC, in the test with HCT-116 colon, in the test with HOP-62 NSCLC, in the test with LOX IMVI melanoma and in the test on MCF7 breast was above 100 µM in each case. Further, the TGI was above 100 µM in the test on MDA-MB-231 breast; above 100 µM in the test with MDA-N; 14 µM with MOLT-4 leukemia; above 100 µM in the test on NCI/ADR-RES ovarian; above 100 µM in the test on OVCAR-3 ovarian; above 100 µM with SN12C renal. Further, the TGI with SR leukemia, with TK-10 renal, with U251 CNS and in the test on UACC-257 melanoma was above 100 µM throughout.

Consider `CC(C)c1nc2cc(C(F)(F)F)ccc2[nH]c1=O`, for which the TGI with CAKI-1 renal, in the test on CCRF-CEM leukemia, in the test on EKVX NSCLC, in the test with HCT-116 colon, in the test with HOP-62 NSCLC and with MCF7 breast was above 100 µM each time. Further, the TGI with MDA-MB-231 breast, in the test with MDA-N, in the test with MOLT-4 leukemia, in the test with NCI/ADR-RES ovarian, in the test on OVCAR-3 ovarian and in the test with SK-OV-3 ovarian was above 100 µM in each case. Also, the TGI in the test on SN12C renal, with SR leukemia, in the test on TK-10 renal, with U251 CNS and in the test with UACC-257 melanoma was above 100 µM each time.

For the compound `CC(C)(C)n1c(=O)[nH]n(C2NN=Cc3cccc4cccc2c34)c1=O` (configuration not stated), the TGI in the test on CAKI-1 renal is above 100 µM; in the test with CCRF-CEM leukemia, 63.6 µM; with EKVX NSCLC, 68.8 µM; with HCT-116 colon, above 100 µM; in the test with LOX IMVI melanoma it was above 100 µM; in the test with MCF7 breast it was above 100 µM. Further, the TGI in the test with MDA-MB-231 breast was above 100 µM; with MDA-N, 59.4 µM; in the test on MOLT-4 leukemia, 81.1 µM; in the test with NCI/ADR-RES ovarian it was above 100 µM; in the test with OVCAR-3 ovarian it was above 100 µM; in the test on SK-OV-3 ovarian, above 100 µM. Also, the TGI in the test with SN12C renal is above 100 µM; in the test with SR leukemia, 37.4 µM; with TK-10 renal it was above 100 µM; in the test with U251 CNS, above 100 µM; in the test on UACC-257 melanoma it was above 100 µM.

For the compound `Cn1c(N)c(C(N)=O)[nH]c1=S`, the TGI in the test on CCRF-CEM leukemia, with EKVX NSCLC, in the test with HOP-62 NSCLC, in the test on LOX IMVI melanoma, in the test on MCF7 breast and in the test on MDA-MB-231 breast was above 100 µM in each case. Besides, the TGI in the test with MDA-N, in the test with MOLT-4 leukemia, with NCI/ADR-RES ovarian, with OVCAR-3 ovarian, with SK-OV-3 ovarian and in the test with SN12C renal was above 100 µM throughout. Also, the TGI with SR leukemia, in the test on TK-10 renal and with U251 CNS was above 100 µM throughout.

On to `COc1ccc(N(CN2C(=O)CCC2C(=O)O)C(C)=O)cc1` (configuration not stated), for which the TGI in the test with CAKI-1 renal, with CCRF-CEM leukemia, in the test with EKVX NSCLC, with HCT-116 colon, in the test on HOP-62 NSCLC and in the test on LOX IMVI melanoma was above 100 µM throughout. Further, the TGI with MCF7 breast, in the test on MDA-MB-231 breast, with MDA-N, with MOLT-4 leukemia, in the test on NCI/ADR-RES ovarian and in the test with OVCAR-3 ovarian was above 100 µM throughout. For the same compound, the TGI in the test with SK-OV-3 ovarian, with SN12C renal, with TK-10 renal, in the test on U251 CNS and with UACC-257 melanoma was above 100 µM each time.

Consider `O=C1NC(=O)C(CC(C(=O)C(=O)Nc2ccccc2Cl)C(=O)c2ccc3ccccc3c2)C(=O)N1` (configuration not stated), for which the TGI in the test with CAKI-1 renal, with CCRF-CEM leukemia, with EKVX NSCLC, in the test on HCT-116 colon, in the test on HOP-62 NSCLC and in the test with LOX IMVI melanoma was above 100 µM each time. The TGI with MCF7 breast, in the test with MDA-MB-231 breast, in the test with MDA-N, in the test on MOLT-4 leukemia, in the test with NCI/ADR-RES ovarian and with OVCAR-3 ovarian was above 100 µM throughout. Further, the TGI in the test on SK-OV-3 ovarian, in the test with SN12C renal, with TK-10 renal, in the test with U251 CNS and in the test with UACC-257 melanoma was above 100 µM each time.
